Read-outs that look alike come from different tables or passages of the source.
How the values were obtained:
[1] = target: CYP 2C19 (Homo sapiens (Human), UniProt P33261); assay: in vitro
Protocol: (§1) CYP450 inhibition profiling provides valuable information regarding any possible drug-drug interactions for a test compound.
(§2) All experiments were performed using P450-Glo™ Assay Systems (Promega) in accordance with the manufacturer's protocols. The P450-Glo™ Assays provide a luminescent readout-based method for measuring cytochrome P450 activity. A conventional cytochrome P450 reaction was performed by incubating the cytochrome P450 and a luminogenic cytochrome P450 substrate. The substrates in the P450-Glo™ assays are derivatives of beetle luciferin. The derivatives themselves are not substrates for luciferase but are converted by cytochrome P450s to luciferin, which in turn reacts with luciferase to produce light. The amount of light produced was directly proportional to cytochrome P450 activity. All test points were performed in quadruplicates. Control membranes (without CYPs) represented the Negative control (baseline).
(§3) The following reference compounds were used to assess CYP inhibition: […]

[2] = target: CYP 1A2 (Homo sapiens (Human), UniProt P05177); assay: in vitro
CYP 1A2, sequence (P05177 whole entry): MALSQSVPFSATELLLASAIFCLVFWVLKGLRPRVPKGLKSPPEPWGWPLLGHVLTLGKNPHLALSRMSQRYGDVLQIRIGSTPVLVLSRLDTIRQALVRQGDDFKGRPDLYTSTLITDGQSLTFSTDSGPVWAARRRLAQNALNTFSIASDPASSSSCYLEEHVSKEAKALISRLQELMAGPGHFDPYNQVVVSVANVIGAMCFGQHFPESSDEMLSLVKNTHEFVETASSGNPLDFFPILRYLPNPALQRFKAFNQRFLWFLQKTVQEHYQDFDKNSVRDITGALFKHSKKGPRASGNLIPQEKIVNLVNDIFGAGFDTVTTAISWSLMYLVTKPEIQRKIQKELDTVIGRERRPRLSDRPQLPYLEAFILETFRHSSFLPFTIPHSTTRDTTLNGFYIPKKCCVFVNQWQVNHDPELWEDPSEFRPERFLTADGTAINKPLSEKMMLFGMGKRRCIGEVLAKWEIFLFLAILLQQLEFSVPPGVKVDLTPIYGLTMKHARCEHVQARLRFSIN
Protocol: as §1, §2, §3

[3] = target: CYP 3A4 (Homo sapiens (Human), UniProt P08684); assay: in vitro; details: % Mean
CYP 3A4, sequence (P08684 whole entry): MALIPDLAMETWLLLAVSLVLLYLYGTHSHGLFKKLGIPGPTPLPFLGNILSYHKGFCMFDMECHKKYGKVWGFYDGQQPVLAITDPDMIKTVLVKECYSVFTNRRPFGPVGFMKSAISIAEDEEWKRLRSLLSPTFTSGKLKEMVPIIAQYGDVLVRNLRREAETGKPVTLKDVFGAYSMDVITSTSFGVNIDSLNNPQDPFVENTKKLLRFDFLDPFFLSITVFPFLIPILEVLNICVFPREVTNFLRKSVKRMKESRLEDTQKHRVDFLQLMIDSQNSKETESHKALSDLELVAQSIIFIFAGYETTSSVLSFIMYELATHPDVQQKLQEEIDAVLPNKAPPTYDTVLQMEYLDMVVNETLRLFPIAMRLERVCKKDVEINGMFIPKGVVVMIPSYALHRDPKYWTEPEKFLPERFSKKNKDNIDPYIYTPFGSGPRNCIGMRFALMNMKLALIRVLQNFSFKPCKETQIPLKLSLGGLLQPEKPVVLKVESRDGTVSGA
Protocol: as §1, §2, §3

[4] = system: Caco-2 cells; assay: Caco-2 A-B permeability assay; type: in vitro ADME; details: A-B, 90 min, pH=7.4
Protocol: (§4) Caco-2 cells were cultivated in 75 cm^2 flasks to 80-90% of confluence according to the ATCC and Millipore recommendations (Millipore protocol note PC1060EN00P) in a humidified atmosphere at 37° C. and 5% CO2. Cells were detached with Trypsin/EDTA solution and re-suspended in the cell culture medium to a final concentration of 2×10^5 cells/mL. 500 μL of the cell suspension was added to each well of an HTS 24-multiwell insert system and 35 mL of prewarmed complete medium was added to the feeder tray. Caco-2 cells were incubated in the multiwell insert system for 10 days before the transport experiments. The medium in the filter plate and feeder tray was changed every other day. After 10 days of cell growth, the integrity of the monolayer was verified by measuring the transepithelial electrical resistance (TEER) for every well using the Millicell-ERS system ohm meter. […] The 24-well insert plate was removed from its feeder plate and placed in a new sterile 24-well transport analysis plate. The medium was aspirated and inserts washed with PBS.
(§5) To determine the rate of drug transport in apical (A) to basolateral (B) direction, 300 μL of the test compound solution in buffer (HBSS, 5.6 mM glucose, 10 mM HEPES, pH=7.4) was added into the filter wells and 1000 μL of the same buffer was added to wells in the transport analysis plate. The plates were incubated for 90 min. at 37° C. with shaking at 50 rpm. 75 μL aliquots were taken from the apical and basolateral compartment for LC-MS/MS analysis. All samples for LC-MS/MS analysis were extracted by acetonitrile (×2 volume) followed by protein sedimentation by centrifuging at 10000 rpm for 10 minutes. Supernatants were analyzed using the HPLC system coupled with a tandem mass spectrometer.
(§6) The apparent permeability (Papp) was calculated for the Caco-2 permeability assay using the following equation: Papp=(VA/((Area)×(Time))×([drug]acc/[drug]initial,d), where: […]

[5] = Caco-2 A-B permeability assay; type: in vitro ADME; details: human
Protocol: as §4, §5, §6

[6] = system: Salmonella typhimurium and Escherichia coli tester strains; assay: Bacterial reverse mutation assay (Ames Test), all tester strains; details: for mutagenic potential for the tester strains: 50, 100 and 200 μM; for precipitate in strain-compound-GM medium mixture: final concentration 200 μM
Description: (§7) The test used amino acid-dependent strains of Salmonella typhimurium and Escherichia coli to detect point mutations which involved substitution, addition or deletion of one or a few DNA base pairs. Point mutations were introduced in the histidine (Salmonella typhimurium) or the tryptophan (Escherichia coli) operon, making the tester strains incapable of producing these amino acids. The test detected mutations that revert the mutations present in the bacteria, restoring the functional capability to synthesize histidine or tryptophan. The revertant bacteria were detected by the ability to grow in the absence of the amino acid required by the parent test strain. A mutagenic potential of a tested compound was assessed by exposing these bacterial strains to different concentrations of the compounds and estimating number of revertant colonies grown in the absence (trace quantities) of the amino acid.
(§8) DMSO was used as the negative control.
(§9) For each experiment, tester strain cultures were grown overnight in Oxoid nutrient broth #2 at 37° C. with shaking at 235 rpm to a density of 1-2×10^9 colony forming units/mL (OD540˜2).
(§10) The tester strain (10 μL of night culture) was mixed with the test agent (10 µL of the DMSO stock) and GM liquid medium (30 μL). The obtained mixture was incubated at room temperature for 5 min in a sterile 1.5 mL tube. Then, to the tube was added 200 μL of molten top agar stored at 44° C. to prevent solidifying. After mixing with a pipette, the mixture was poured onto the surface of a GM agar plate (2.0 mL of GM agar per plate). After solidifying the top agar, the plate was inverted and incubated at 37° C. for 48 hours. Then, results were expressed as number of revertant colonies per plate.

[7] = system: TA 98; assay: Ames Test, strain TA 98
Description: as §7, §8, §9, §10

[8] = system: TA 100; assay: Ames Test, strain TA 100
Description: as §7, §8, §9, §10

[9] = Caco-2, pH 7.4, A-B, read-out: Permeability (individual replicates 1, 2)
[10] = Caco-2, pH 7.4, A-B, read-out: Permeability Mean
[11] = TA 98, 200 μM, baseline = mean of negative control + SD

CYP 2C19, sequence (P33261 whole entry): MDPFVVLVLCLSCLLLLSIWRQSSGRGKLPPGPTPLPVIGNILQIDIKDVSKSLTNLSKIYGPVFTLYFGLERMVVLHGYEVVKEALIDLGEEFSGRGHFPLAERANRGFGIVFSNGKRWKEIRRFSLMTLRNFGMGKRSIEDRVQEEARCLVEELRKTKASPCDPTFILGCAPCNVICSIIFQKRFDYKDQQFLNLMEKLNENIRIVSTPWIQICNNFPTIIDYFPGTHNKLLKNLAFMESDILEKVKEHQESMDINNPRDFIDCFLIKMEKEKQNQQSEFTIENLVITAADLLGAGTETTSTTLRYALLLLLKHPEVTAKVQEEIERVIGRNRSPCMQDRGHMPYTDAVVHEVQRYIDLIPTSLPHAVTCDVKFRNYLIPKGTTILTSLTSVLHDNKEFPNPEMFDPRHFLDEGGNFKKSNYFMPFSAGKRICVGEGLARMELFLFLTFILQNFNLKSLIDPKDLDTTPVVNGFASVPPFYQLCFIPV

| SMILES | inhibition at 10 µM ([1]; % Mean) [%] | inhibition at 10 µM ([2]; % (individual replicates)) [%] | inhibition at 10 µM ([2]; % Mean) [%] | inhibition at 10 µM [3] [%] | Permeability (individual replicates 1, 2) [4] | Papp at 90 min [5, 9] [×10⁻⁶ cm/s] | Papp at 90 min [5, 10] [×10⁻⁶ cm/s] | mutagenic potential for the tester strains [6] | Fold increase (over baseline) ([7]; TA 98, 50 μM) | Mean ± SD ([7]; TA 98, 50 μM) | Fold increase (over baseline) ([7]; TA 98, 100 μM) | Mean ± SD ([7]; TA 98, 100 μM) | Mean ± SD ([7]; TA 98, 200 μM) | Fold increase (over baseline) [7, 11] | Fold increase (over baseline) ([8]; TA 100, 50 μM) | Mean ± SD ([8]; TA 100, 50 μM) | Fold increase (over baseline) ([8]; TA 100, 100 μM) | Mean ± SD ([8]; TA 100, 100 μM) | Fold increase (over baseline) ([8]; TA 100, 200 μM) | Mean ± SD ([8]; TA 100, 200 μM) | also measured |
| --- | --- | --- | --- | --- | --- | --- | --- | --- | --- | --- | --- | --- | --- | --- | --- | --- | --- | --- | --- | --- | --- |
| O=C(Cn1cnc2c1CCCC2)Nc1ccc(-c2ccccc2)cc1 [Compound 1] | 9.4 | 73.2 | 69 | -24.4 | 12.1 10^−6 cm/s | 8.3 | 10.2 | no mutagenic potential | 0.46 | 1.5 ± 0.7 revertant colonies per plate | 0.2 | 0.5 ± 0.7 revertant colonies per plate | 0 ± 0 revertant colonies per plate | 0 | 0 | 0 ± 0 revertant colonies per plate | 0 | 0 ± 0 revertant colonies per plate | 0 | 0 ± 0 revertant colonies per plate | precipitate in strain-compound-GM medium mixture [6]: Precipitate was observed |
| CC(C)c1nccn1CC(=O)Nc1ccc(-c2ccccc2)cc1 [Compound 2] | -9.5 | 49.3 | 40.4 | -14.3 | 18.5 10^−6 cm/s | 17.9 | 18.2 | no mutagenic potential | 0.3 | 1 ± 1.41 revertant colonies per plate | 0.2 | 0.5 ± 0.7 revertant colonies per plate | 0.5 ± 0.7 revertant colonies per plate | 0.2 | 1.37 | 8.5 ± 6.36 revertant colonies per plate | 0.97 | 6 ± 2.83 revertant colonies per plate | 1.61 | 10 ± 0 revertant colonies per plate |  |
| CC(C)(C)Sc1ccc(NC(=O)Cn2ccnc2)cc1 [Compound 3] | 92.5 | 98.6 | 97.6 | 88.3 | 41.7 10^−6 cm/s | 39.5 | 40.6 |  | 0.46 | 1.5 ± 0.7 revertant colonies per plate | 0.2 | 0.5 ± 0.7 revertant colonies per plate | >1000 revertant colonies per plate | >312 | 0.85 | 5.5 ± 0.7 revertant colonies per plate | >32 | >200 revertant colonies per plate | >48 | >300 revertant colonies per plate | inhibition at 10 µM ([1]; % (individual replicates)): 97.4%; mutagenic activity ([7]; TA 98, 200 μM): mutagenic activity; mutagenic activity ([8]; TA 100, both 100 and 200 μM): mutagenic activity |
| O=C(Cn1ccnc1-c1ccccn1)Nc1ccc(-c2ccccc2)cc1 [Compound 4] | -10.3 |  | 5.6 | 1.4 |  | 14.6 | 15.3 | no mutagenic potential | 0.46 | 1.5 ± 0.7 revertant colonies per plate | 0 | 0 ± 0 revertant colonies per plate | 0 ± 0 revertant colonies per plate | 0 | 0.89 | 5.5 ± 2.12 revertant colonies per plate | 1.2 | 7.5 ± 3.54 revertant colonies per plate | 0.65 | 4 ± 1.41 revertant colonies per plate | Papp at 90 min ([5]; Caco-2, A-B, pH=7.4, read-out: Permeability (individual replicates 1, 2)): 15.9 ×10⁻⁶ cm/s; precipitate in strain-compound-GM medium mixture [6]: Precipitate was observed |
| Cc1nc2c(c(N3CCCN(Cc4ccccc4)CC3)n1)CCCC2 [Compound 31] | 16.2 |  | -0.7 | -16.1 | 45.2 10^−6 cm/s | 52.8 | 49 | no mutagenic potential | 0.2 | 0.5 ± 0.7 revertant colonies per plate | 0.3 | 1 ± 0 revertant colonies per plate | 1 ± 1.41 revertant colonies per plate | 0.3 | 1.04 | 6.5 ± 0.7 revertant colonies per plate | 0.97 | 6 ± 0 revertant colonies per plate | 0.97 | 6 ± 1.41 revertant colonies per plate | inhibition at 10 µM ([1]; % (individual replicates)): 14% |

Source: patent US11401255B2, “Small molecule activators of Parkin enzyme function” (Mayo Foundation for Medical Education and Research, priority 2016, dated 2022)
